Assay: xn = mol fraction of the nth substance listed
Conditions: 101 kPa, Liquid; for viscosity: Concentric cylinders viscometry; for mass density: Vibrating tube method

CCCCOC(=O)C(C)O (stereo not given) [butyl 2-hydroxypropanoate] + OCCCO
Conditions | mass density [kg/m3] | viscosity [mPa·s]
288.15 K, x1 = 0.0999 | 1046.52 | 55.22
288.15 K, x1 = 0.2 | 1037.84 | 41.92
288.15 K, x1 = 0.3001 | 1029.39 | 31.27
288.15 K, x1 = 0.4 | 1022.24 | 22.91
288.15 K, x1 = 0.4999 | 1015.45 | 16.95
288.15 K, x1 = 0.5999 | 1009.2 | 12.66
288.15 K, x1 = 0.6996 | 1003.51 | 9.596
288.15 K, x1 = 0.8001 | 997.914 | 7.373
288.15 K, x1 = 0.9 | 992.76 | 5.629
288.15 K, x1 = 1 | 987.269 | 4.628
293.15 K, x1 = 0.0999 | 1043.16 | 42.99
293.15 K, x1 = 0.2 | 1034.24 | 32.73
293.15 K, x1 = 0.3001 | 1025.58 | 24.47
293.15 K, x1 = 0.4 | 1018.23 | 18.13
293.15 K, x1 = 0.4999 | 1011.25 | 13.54
293.15 K, x1 = 0.5999 | 1004.84 | 10.21
293.15 K, x1 = 0.6996 | 999.008 | 7.805
293.15 K, x1 = 0.8001 | 993.26 | 6.064
293.15 K, x1 = 0.9 | 987.976 | 4.686
293.15 K, x1 = 1 | 982.366 | 3.88
298.15 K, x1 = 0.0999 | 1039.79 | 33.94
298.15 K, x1 = 0.2 | 1030.62 | 25.91
298.15 K, x1 = 0.3001 | 1021.73 | 19.59
298.15 K, x1 = 0.4 | 1014.19 | 14.51
298.15 K, x1 = 0.4999 | 1007.03 | 10.96
298.15 K, x1 = 0.5999 | 1000.47 | 8.355
298.15 K, x1 = 0.6996 | 994.488 | 6.444
298.15 K, x1 = 0.8001 | 988.587 | 5.056
298.15 K, x1 = 0.9 | 983.173 | 3.957
298.15 K, x1 = 1 | 977.448 | 3.307
303.15 K, x1 = 0.0999 | 1036.41 | 27.14
303.15 K, x1 = 0.2 | 1026.99 | 20.8
303.15 K, x1 = 0.3001 | 1017.87 | 15.82
303.15 K, x1 = 0.4 | 1010.14 | 11.86
303.15 K, x1 = 0.4999 | 1002.79 | 8.984
303.15 K, x1 = 0.5999 | 996.07 | 6.919
303.15 K, x1 = 0.6996 | 989.946 | 5.405
303.15 K, x1 = 0.8001 | 983.896 | 4.286
303.15 K, x1 = 0.9 | 978.359 | 3.386
303.15 K, x1 = 1 | 972.515 | 2.86
308.15 K, x1 = 0.0999 | 1033 | 21.95
308.15 K, x1 = 0.2 | 1023.33 | 16.89
308.15 K, x1 = 0.3001 | 1013.99 | 12.93
308.15 K, x1 = 0.4 | 1006.06 | 9.744
308.15 K, x1 = 0.4999 | 998.523 | 7.491
308.15 K, x1 = 0.5999 | 991.652 | 5.805
308.15 K, x1 = 0.6996 | 985.382 | 4.581
308.15 K, x1 = 0.8001 | 979.183 | 3.667
308.15 K, x1 = 0.9 | 973.522 | 2.929
308.15 K, x1 = 1 | 967.567 | 2.481
313.15 K, x1 = 0.0999 | 1029.57 | 17.95
313.15 K, x1 = 0.2 | 1019.65 | 13.87
313.15 K, x1 = 0.3001 | 1010.09 | 10.69
313.15 K, x1 = 0.4 | 1001.96 | 8.124
313.15 K, x1 = 0.4999 | 994.239 | 6.299
313.15 K, x1 = 0.5999 | 987.21 | 4.926
313.15 K, x1 = 0.6996 | 980.794 | 3.922
313.15 K, x1 = 0.8001 | 974.453 | 3.171
313.15 K, x1 = 0.9 | 968.668 | 2.558
313.15 K, x1 = 1 | 962.603 | 2.181
318.15 K, x1 = 0.0999 | 1026.13 | 14.83
318.15 K, x1 = 0.2 | 1015.95 | 11.5
318.15 K, x1 = 0.3001 | 1006.16 | 8.916
318.15 K, x1 = 0.4 | 997.828 | 6.84
318.15 K, x1 = 0.4999 | 989.925 | 5.351
318.15 K, x1 = 0.5999 | 982.743 | 4.221
318.15 K, x1 = 0.6996 | 976.184 | 3.391
318.15 K, x1 = 0.8001 | 969.697 | 2.768
318.15 K, x1 = 0.9 | 963.791 | 2.253
318.15 K, x1 = 1 | 957.624 | 1.935
323.15 K, x1 = 0.0999 | 1022.65 | 12.36
323.15 K, x1 = 0.2 | 1012.21 | 9.627
323.15 K, x1 = 0.3001 | 1002.2 | 7.519
323.15 K, x1 = 0.4 | 993.673 | 5.813
323.15 K, x1 = 0.4999 | 985.589 | 4.586
323.15 K, x1 = 0.5999 | 978.248 | 3.65
323.15 K, x1 = 0.6996 | 971.548 | 2.958
323.15 K, x1 = 0.8001 | 964.924 | 2.435
323.15 K, x1 = 0.9 | 958.899 | 2.002
323.15 K, x1 = 1 | 952.631 | 1.728

Reference: the NIST ThermoML archive (doi:10.1016/j.tca.2013.03.025)
